This is an account of results in patent US11952384B2, “Anti-tumor compound and preparation method and use thereof” (DUALITY BIOLOGICS (SUZHOU) CO., LTD., priority 2020, dated 2024).

Like-named read-outs stand apart in the source and are kept apart here.

Experiment in all cases: Inhibition of in vitro proliferation of tumor cells by compounds (CTG, 6 days)
Holding throughout (format): cell-based

One test concerns NCI-N87 cells. Particulars: small molecule fragments, 6 days of culture, CTG, read-out: NCI-N87 IC50. In outline: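 NCI-N87 cells in RPMI-1640 with 10% FBS, plated and allowed 18 h attachment, then exposed in duplicate to 8 concentrations from 300 nM to 0.1 nM for 6 days at 37 °C, 5% CO2. Viability read by CellTiter-Glo luminescence; IC50 derived from the dose-response.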
The test system of a further test is JIMT-1 cells. Conditions: small molecule fragments, 6 days of culture, CTG, read-out: JIMT-1 IC50. In outline:
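JIMT-1 cells in RPMI-1640/10% FBS plated at 6×10^4 cells/mL, left 18 h, then exposed to 8 compound concentrations (0.1–300 nM) in duplicate for 6 days at 37° C. Viability by CellTiter-Glo luminescence; IC50 derived.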

A further test has as its system MDA-MB-231 cells. Conditions: small molecule fragments, 6 days of culture, CTG, read-out: MDA-MB-231 IC50. The procedure:
To test the inhibitory activity of the pharmaceutical compounds on the in vitro proliferation of NCI-N87, JIMT-1 and MBA-MB-231 tumor cells. The cells were treated with compounds at different concentrations in vitro, and after 6 days of culture, the proliferation of cells was detected using CTG (CellTiter-Glo® Luminescent Cell Viability Assay, Promega, Cat. No. G7558) reagents, and the in vitro activity of the compounds was evaluated according to the IC50 value. • 1. Culturing of cells: NCI-N87/JIMT-1/MBA-MB-231 cells were cultured in RPMI-1640 medium containing 10% FBS. • 2. Preparation of cells: NCI-N87/JIMT-1/MBA-MB-231 cells in logarithmic phase were taken, washed with PBS once, and digested with 2-3 mL of trypsin for 2-3 min. After the cells were digested completely, 10-15 mL of cell culture was added to elute the digested cells. The eluate was centrifuged at 1000 rpm for 5 min, and the supernatant was discarded. The resulting cells were resuspended in 10-20 mL of cell culture to obtain a single cell suspension. • 3. Cell plating: the NCI-N87/JIMT-1/MBA-MB-231 single cell suspension was mixed well and adjusted to a viable cell density of 6×10^4 cells/mL with cell culture. The cell suspension with the adjusted density was mixed well and added to a 96-well cell culture plate at 50 μL/well. The culture plate was incubated in an incubator for 18 h (37° C., 5% CO2). • 4. Preparation of compounds: the compounds were dissolved in DMSO to obtain stock solutions at an initial concentration of 10 mM. There were 8 concentrations in total for the small molecule compounds: 300 nM, 100 nM, 30 nM, 10 nM, 3 nM, 1 nM, 0.3 nM, and 0.1 nM. • 5. Sample adding: the prepared samples to be detected at different concentrations were added to the culture plate, and two duplicate wells were set for each sample. The culture plate was incubated in an incubator for 6 days (37° C., 5% CO2). • 6. Color developing: the 96-well cell culture plate was taken out, added with the CTG reagent at 50 μL/well, and incubated at room temperature for 10 min. • 7. Plate reading: the 96-well cell culture plate was taken out, placed in a microplate reader, and measured for the chemiluminescence using the microplate reader. Data analysis: data were processed and analyzed using Microsoft Excel and Graphpad Prism 5.

[1] abbreviates: Homo sapiens, NCI-N87, 144 h, Table 1, Test Example 2.1.
[2] abbreviates: Homo sapiens, NCI-N87, 144 h, Table 2 (untitled), Test Example 2.2.
[3] abbreviates: Table 2 (untitled), Test Example 2.2.
Where [4] appears, read: Homo sapiens, MDA-MB-231, 144 h, Table 2 (untitled), Test Example 2.2.
Where [5] appears, read: Homo sapiens, JIMT-1, 144 h, Table 1, Test Example 2.1.
Setting [6] is: Homo sapiens, JIMT-1, 144 h, Table 2 (untitled), Test Example 2.2.

In general, IC50 refers to the concentration needed to halve the response being measured. For the compound `CC[C@@]1(O)C(=O)OCc2c1cc1n(c2=O)Cc2c-1nc1cc(F)c(C)c3c1c2[C@@H](NC(=O)C1CCC(O)CC1)CC3` (single isomer, unassigned) [P-II-1], the IC50 with NCI-N87 cells (setting [1]) is 18.5 nM; in the test with NCI-N87 cells (setting [2]), 18.5 nM; in the test on JIMT-1 cells (Table 1, Test Example 2.1), 8.47 nM; with JIMT-1 cells (setting [3]) it was 8.5 nM; in the test with MDA-MB-231 cells (setting [4]), 12.9 nM.
For `CC[C@@]1(O)C(=O)OCc2c1cc1n(c2=O)Cc2c-1nc1cc(F)c(C)c3c1c2[C@@H](NC(=O)[C@H]1C[C@@H](O)C1)CC3` [P-II-3, (1s,3R)-N-((1S,9S)-9-ethyl-5-fluoro-9-hydroxy-4-methyl-10,13-dioxo-2,3,9,10,13,15-hexahydro-1H,12H-benzo[de]pyrano[3′,4′:6,7]indolizino[1,2-b]quinolin-1-yl)-3-hydroxycyclobutane-1-carboxamide], the IC50 worked out at 9.56 nM with NCI-N87 cells (setting [1]); 9.56 nM in the test on NCI-N87 cells (setting [2]); 5 nM with JIMT-1 cells (setting [5]); 5 nM in the test with JIMT-1 cells (setting [6]); 9.4 nM with MDA-MB-231 cells (setting [4]).
With `CC[C@@]1(O)C(=O)OCc2c1cc1n(c2=O)Cc2c-1nc1cc(F)c(C)c3c1c2[C@@H](NC(=O)C1CCC(O)CC1)CC3` (single isomer, unassigned) [P-II-2], the IC50 stood at 22.1 nM with NCI-N87 cells (Table 1, Test Example 2.1); 22.1 nM in the test with NCI-N87 cells (setting [3]); 17 nM with JIMT-1 cells (Table 1, Test Example 2.1); 17.2 nM in the test with JIMT-1 cells (setting [3]); 19.3 nM in the test on MDA-MB-231 cells (setting [3]).
In the case of `CC[C@@]1(O)C(=O)OCc2c1cc1n(c2=O)Cc2c-1nc1cc(F)c(C)c3c1c2[C@@H](NC(=O)C[C@@H](C)O)CC3` [P-III-20, (R)—N-((1S,9S)-9-ethyl-5-fluoro-9-hydroxy-4-methyl-10,13-dioxo-2,3,9,10,13,15-hexahydro-1H,12H-benzo[de]pyrano[3′,4′: 6,7]indolizino[1,2-b]quinolin-1-yl)-3-hydroxybutanamide], the IC50 came out at 5.89 nM in the test with NCI-N87 cells (setting [1]); 5.89 nM in the test with NCI-N87 cells (Homo sapiens, NCI-N87, 144 h, Table 3, Test Example 2.3); 5.9 nM in the test with NCI-N87 cells (Homo sapiens, NCI-N87, 144 h, Table 4, Test Example 2.4); 4.35 nM with JIMT-1 cells (setting [5]); 4.35 nM in the test with JIMT-1 cells (Homo sapiens, JIMT-1, 144 h, Table 3, Test Example 2.3); 6.65 nM in the test on MDA-MB-231 cells (Homo sapiens, MDA-MB-231, 144 h, Table 3, Test Example 2.3).
Regarding `CC[C@@]1(O)C(=O)OCc2c1cc1n(c2=O)Cc2c-1nc1cc(F)c(C)c3c1c2[C@@H](NC(=O)[C@H]1C[C@H](O)C1)CC3` [P-II-4, (1r,3S)-N-((1S,9S)-9-ethyl-5-fluoro-9-hydroxy-4-methyl-10,13-dioxo-2,3,9,10,13,15-hexahydro-1H,12H-benzo[de]pyrano[3′,4′:6,7]indolizino[1,2-b]quinolin-1-yl)-3-hydroxycyclobutane-1-carboxamide], the IC50 was 8.03 nM in the test on NCI-N87 cells (setting [1]); 8.03 nM in the test with NCI-N87 cells (setting [2]); 6.64 nM in the test with JIMT-1 cells (setting [5]); 6.6 nM in the test with JIMT-1 cells (setting [6]); 7.6 nM in the test with MDA-MB-231 cells (setting [4]).
